Source: US5288709A, “Erythromycin derivatives” (priority 1991, dated 1994)
Values after ≈ are worked out from the molar mass of the structure shown. Like-named read-outs stand apart in the source and are kept apart here.

How the values were obtained:
[1] = Pharmacokinetic evaluation in dogs after a 10 mg/kg dose; conditions: dog, plasma; for half-life: t1/2 (biological half life); for bioavailability: % ABS (percent absorbance), from AUC (absolute bioavailability); for Cmax: Cmax (maximum concentration in blood); for Tmax: Tmax (time to achieve maximum concentration in blood)
[2] = system: Pseudomonas aeruginosa K799/61; test: In-vitro antimicrobial activity primary screen (agar dilution MIC); assay type: cell-based; conditions: Pseudomonas aeruginosa K799/61; BHI agar, 20-24 h; read-out: MIC
Outline: (§1)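 MIC read after 20-24 hours at 35 37° C as the lowest compound level with no growth, only haze or sparse colonies relative to drug-free growth control. Plates were BHI agar carrying serial compound dilutions, replicator-inoculated at 1:100, or 1:10 for slow-growing strains.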

Staphylococcus aureus 45 = test: as above; assay type: cell-based; conditions: BHI agar, 20-24 h, read-out: MIC
Outline: as §1

[3] = system: Streptococcus bovis A5169; test: as above; assay type: cell-based; conditions: Streptococcus equinus, BHI agar, 20-24 h, read-out: MIC
Outline: as §1

Pseudomonas cepacia 2961 = test: as above; assay type: cell-based; conditions: BHI agar, 20-24 h
Outline: as §1

[4] = system: Micrococcus luteus ATCC 4698; test: as above; assay type: cell-based; conditions: ATCC4698, BHI agar, 20-24 h, read-out: MIC
Outline: as §1

[5] = system: Enterobacter aerogenes ATCC 13048; test: as above; assay type: cell-based; conditions: Klebsiella aerogenes, Enterobacter aerogenes ATCC 13048, BHI agar, 20-24 h
Outline: as §1

Escherichia coli H560 = test: as above; assay type: cell-based; conditions: Escherichia coli H560; BHI agar, 20-24 h; read-out: MIC
Outline: as §1

[6] = system: Staphylococcus aureus 45 RAR2; test: as above; assay type: cell-based; conditions: Staphylococcus aureus, 45RAR2, 24 h, BHI agar, 20-24 h
Outline: as §1

Acinetobacter SP CMX 669 = test: as above; assay type: cell-based; conditions: Acinetobacter, SPCMX669, 24 h
Outline: as §1

[7] = system: Streptococcus pyrogenes EES61; test: as above; assay type: cell-based; conditions: BHI agar, 20-24 h, read-out: MIC
Outline: as §1

[8] = system: Micrococcus luteus ATCC 9341; test: as above; assay type: cell-based; conditions: 20-24 h
Outline: as §1

[9] = system: Streptococcus agalactiae CMX 508; test: as above; assay type: cell-based; conditions: CMX508, BHI agar, 20-24 h, read-out: MIC
Outline: as §1

[10] = system: Providencia stuartii CMX 640; test: as above; assay type: cell-based
Outline: as §1

[11] = system: Enterococcus faecium ATCC 8043; test: as above; assay type: cell-based; conditions: ATCC8043; Enterococcus faecium ATCC 8043; BHI agar, 20-24 h; read-out: MIC
Outline: as §1

[12] = system: Pseudomonas aeruginosa A5007; test: as above; assay type: cell-based
Outline: as §1

[13] = system: Staphylococcus epidermidis 3519; test: as above; assay type: cell-based; conditions: BHI agar, 20-24 h, read-out: MIC
Outline: as §1

[14] = system: Staphylococcus aureus 642A; test: as above; assay type: cell-based; conditions: BHI agar, 20-24 h, read-out: MIC
Outline: as §1

[15] = system: Streptococcus pyrogenes 2548 INDUC; test: as above; assay type: cell-based; conditions: BHI agar, 20-24 h, read-out: MIC
Outline: as §1

Escherichia coli SS = test: as above; assay type: cell-based; conditions: BHI agar, 20-24 h, read-out: MIC
Outline: as §1

Escherichia coli DC-2 = test: as above; assay type: cell-based; conditions: DC2; Escherichia coli DC-2; BHI agar, 20-24 h; read-out: MIC
Outline: as §1

[16] = system: Staphylococcus aureus ATCC 6538P; test: as above; assay type: cell-based; conditions: Staphylococcus aureus, ATCC6538P, 24 h, BHI agar, 20-24 h
Outline: as §1

Escherichia coli JUHL = test: as above; assay type: cell-based; conditions: Escherichia coli JUHL; BHI agar, 20-24 h; read-out: MIC
Outline: as §1

[17] = system: Pseudomonas aeruginosa K799/WT; test: as above; assay type: cell-based
Outline: as §1

[18] = system: Pseudomonas aeruginosa BMH10; test: as above; assay type: cell-based; conditions: Pseudomonas aeruginosa, BMH10, 24 h, BHI agar, 20-24 h
Outline: as §1

[19] = system: Staphylococcus aureus NCTC 10649; test: as above; assay type: cell-based; conditions: NCTC10649, BHI agar, 20-24 h, read-out: MIC
Outline: as §1

[20] = system: Staphylococcus aureus A5177; test: as above; assay type: cell-based; conditions: Staphylococcus aureus, A5177, 24 h
Outline: as §1

[21] = system: Klebsiella pneumoniae ATCC 8045; test: as above; assay type: cell-based
Outline: as §1

[22] = system: Staphylococcus aureus CMX 553; test: as above; assay type: cell-based; conditions: Staphylococcus aureus, CMX553, 24 h, BHI agar, 20-24 h, read-out: MIC
Outline: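 MIC is read as the lowest compound level yielding no growth, slight haze or sparse colonies on the inoculum spot, relative to a drug-free plate. Strains were replicator-inoculated (1:100 dilution) onto BHI agar plates holding twelve dilutions and held at 35-37 °C for 20-24 h, with erythromycin A as comparator.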

[23] = po, oral 10 mg/kg, HPLC (parent drug)
[24] = po, oral 10 mg/kg, microbiological assay

Row | Structure (SMILES) | MIC [2] | MIC (Staphylococcus aureus 45) | MIC [3] | MIC [4] | MIC (Escherichia coli H560) | MIC [6] | MIC (Acinetobacter SP CMX 669) | MIC [7] | MIC [9] | MIC [11] | MIC [13] | MIC [14] | MIC [15] | MIC (Escherichia coli SS) | MIC (Escherichia coli DC-2) | MIC [16] | MIC (Escherichia coli JUHL) | MIC [18] | MIC [19] | MIC [22] | other results
1 | CC[C@H]1OC(=O)[C@H](C)[C@@H](O[C@H]2C[C@@](C)(OC)[C@@H](N)[C@H](C)O2)[C@H](C)[C@@H](O[C@@H]2O[C@H](C)C[C@H](N(C)C)[C@H]2O)[C@](C)(O)C[C@@H](C)[C@@H]2O[C@@]1(C)[C@@H](N)[C@H]2C [Example 22, (4"S,9S,11S)-4",11-Diamino-9-deoxo-4",11,12-trideoxy-9,12-epoxyerythromycinA] | 0.39 µg/mL (≈ 0.545 µM) | 0.1 µg/mL (≈ 0.14 µM) | 0.01 µg/mL (≈ 0.014 µM) | 0.05 µg/mL (≈ 0.0698 µM) | 0.78 µg/mL (≈ 1.09 µM) | 0.2 µg/mL (≈ 0.279 µM) | 0.39 µg/mL (≈ 0.545 µM) | 0.01 µg/mL (≈ 0.014 µM) | 0.01 µg/mL (≈ 0.014 µM) | 0.05 µg/mL (≈ 0.0698 µM) | 0.2 µg/mL (≈ 0.279 µM) | 0.2 µg/mL (≈ 0.279 µM) | 1.56 µg/mL (≈ 2.18 µM) | 0.1 µg/mL (≈ 0.14 µM) | 3.1 µg/mL (≈ 4.33 µM) | 0.2 µg/mL (≈ 0.279 µM) | 1.56 µg/mL (≈ 2.18 µM) | 12.5 µg/mL (≈ 17.5 µM) | 0.2 µg/mL (≈ 0.279 µM) | 0.2 µg/mL (≈ 0.279 µM) | half-life ([1]; iv, IV 10 mg/kg, HPLC (parent drug)): 9.3 h; half-life ([1]; iv, IV 10 mg/kg, microbiological assay): 10.2 h; bioavailability [1, 23]: 43%; bioavailability [1, 24]: 57%; Cmax [1, 23]: 3200 ng/mL; Cmax [1, 24]: 3500 ng/mL; Tmax [1, 23]: 0.5 h; Tmax [1, 24]: 0.6 h; half-life [1, 23]: 11.5 h; half-life [1, 24]: 9.8 h; MIC (Pseudomonas cepacia 2961; Burkholderia cepacia, read-out: MIC): > 100 µg/mL; MIC ([5]; ATCC13048, read-out: MIC): 6.2 µg/mL (≈ 8.66 µM); MIC ([8]; ATCC9341, BHI agar, read-out: MIC): ≤ 0.005 µg/mL; MIC ([10]; CMX640, Providencia stuartii CMX 640, BHI agar, 20-24 h, read-out: MIC): > 100 µg/mL; MIC ([12]; Pseudomonas aeruginosa A5007, BHI agar, 20-24 h, read-out: MIC): > 100 µg/mL; MIC ([17]; Pseudomonas aeruginosa K799/WT, BHI agar, 20-24 h, read-out: MIC): 100 µg/mL (≈ 140 µM); MIC [20]: 1.56 µg/mL (≈ 2.18 µM); MIC ([21]; ATCC8045, Klebsiella pneumoniae ATCC 8045, BHI agar, 20-24 h, read-out: MIC): 1.56 µg/mL (≈ 2.18 µM)
2 | CC[C@H]1OC(=O)[C@H](C)[C@@H](O[C@H]2C[C@@](C)(OC)[C@H](O)[C@H](C)O2)[C@H](C)[C@@H](O[C@@H]2O[C@H](C)C[C@H](N(C)C)[C@H]2O)[C@](C)(O)C[C@@H](C)[C@@H]2O[C@@]1(C)C(=O)[C@H]2C [Example 21, (4"R,9S)-9-Deoxo-11,12-dideoxy-9,12-epoxy-11-oxoerythromycin A] | 0.39 µg/mL (≈ 0.545 µM) | 0.1 µg/mL (≈ 0.14 µM) | 0.01 µg/mL (≈ 0.014 µM) | 0.05 µg/mL (≈ 0.0698 µM) | 0.78 µg/mL (≈ 1.09 µM) | 0.2 µg/mL (≈ 0.279 µM) | 0.39 µg/mL (≈ 0.545 µM) | 0.01 µg/mL (≈ 0.014 µM) | 0.01 µg/mL (≈ 0.014 µM) | 0.05 µg/mL (≈ 0.0698 µM) | 0.2 µg/mL (≈ 0.279 µM) | 0.2 µg/mL (≈ 0.279 µM) | 1.56 µg/mL (≈ 2.18 µM) | 0.1 µg/mL (≈ 0.14 µM) | 3.1 µg/mL (≈ 4.33 µM) | 0.2 µg/mL (≈ 0.279 µM) | 1.56 µg/mL (≈ 2.18 µM) | 12.5 µg/mL (≈ 17.5 µM) | 0.2 µg/mL (≈ 0.279 µM) | 0.2 µg/mL (≈ 0.279 µM) | MIC (Pseudomonas cepacia 2961; Burkholderia cepacia, 2961, 24 h): > 100 µg/mL; MIC ([5]; ATCC13048, 24 h): 6.2 µg/mL (≈ 8.66 µM); MIC ([8]; Micrococcus luteus, ATCC9341, 24 h, BHI agar): ≤ 0.005 µg/mL; MIC ([10]; Providencia stuartii, CMX640, 24 h): > 100 µg/mL; MIC ([12]; Pseudomonas aeruginosa, A5007, 24 h): > 100 µg/mL; MIC ([17]; Pseudomonas aeruginosa, K799/WT, 24 h): 100 µg/mL (≈ 140 µM); MIC ([20]; Staphylococcus aureus A5177, BHI agar, 20-24 h): 1.56 µg/mL (≈ 2.18 µM); MIC ([21]; Klebsiella pneumoniae, ATCC8045, 24 h): 1.56 µg/mL (≈ 2.18 µM)
